Source: patent publication US20230041563A1, “N-(1,3,4-OXADIAZOL-2-YL)ARYLCARBOXAMIDES OR SALTS THEREOF, PREPARATION METHODS, HERBICIDAL COMPOSITIONS AND USES THEREOF” (priority 2018, published 2023)
Read-outs that look alike come from different tables or passages of the source.

Tested on: weeds
Assay: Actual control effects and combined effects of mixtures of active ingredients (i) and (ii), stem-leaf treatment, Gowing method
Assay type: in vivo
Settings: for pest or weed control at 27 g/ha: (ii) 1.8 g a.i./mu
Procedure: According to the actual control effect and the property of the herbicides, the balance of the formula and other factors, the optimal ratio was determined. In the calculation formula: X represents the fresh weight inhibition rate when the active ingredient (i) is used in an amount of P; and Y represents the fresh weight inhibition rate when the active ingredient (ii) is used in an amount of Q. The statistical results are shown in Tables 9-11 below.

[1] = Echinochloa phyllopogon, (ii) 15 g a.i./mu, 20 days
[2] = 480 h, Cyperus difformis, 20 days, read-out: Control effect of (ii) alone at corresponding dose
[3] = 480 h, Cyperus difformis, (ii) 15 g a.i./mu, stem-leaf treatment, 20 days, read-out: Control effect of (ii) alone at corresponding dose
[4] = Cyperus difformis, (ii) 15 g a.i./mu, 20 days
[5] = Pontederia vaginalis, 480 h, Monochoria vaginalis, (ii) 5 g a.i./mu, stem-leaf treatment, 20 days, read-out: Control effect of (ii) alone at corresponding dose
[6] = Leptochloa chinensis, (ii) 3 g a.i./mu, 20 days
[7] = Monochoria vaginalis, (ii) 3 g a.i./mu, 20 days
[8] = Echinochloa phyllopogon, (ii) 0.6 g a.i./mu, 20 days
[9] = Echinochloa phyllopogon, (ii) 0.6 g a.i./mu, stem-leaf treatment, 20 days
[10] = Pontederia vaginalis, 480 h, read-out: Control effect of (ii) alone at corresponding dose

CS(=O)(=O)c1ccc(C(=O)C2C(=O)CCCC2=O)c([N+](=O)[O-])c1 [Mesotrione]
pest or weed control at 9 g/ha (480 h, Cyperus difformis, (ii) 0.6 g a.i./mu, 20 days, read-out: Control effect of (ii) alone at corresponding dose): 29.5% | pest or weed control at 15 g/ha (480 h, Cyperus difformis, (ii) 1 g a.i./mu, stem-leaf treatment, 20 days, read-out: Control effect of (ii) alone at corresponding dose): 50.4% | Control effect of (ii) alone at corresponding dose (Cyperus difformis, (ii) 1 g a.i./mu, 20 days): 50.4%

O=C(O)c1c(Cl)ccc2cc(Cl)cnc12 [Quinclorac]
pest or weed control at 45 g/ha (480 h, Echinochloa phyllopogon, (ii) 3 g a.i./mu, stem-leaf treatment, 20 days, read-out: Control effect of (ii) alone at corresponding dose): 35.2% | pest or weed control at […] (480 h, Echinochloa phyllopogon, (ii) 15 g a.i./mu, stem-leaf treatment, 20 days, read-out: Control effect of (ii) alone at corresponding dose): 52.9% | Control effect of (ii) alone at corresponding dose (Echinochloa phyllopogon, (ii) 3 g a.i./mu, 20 days): 35.2% | Control effect of (ii) alone at corresponding dose [1]: 52.9%

CCCCCCCCSC(=O)Oc1cc(Cl)nnc1-c1ccccc1 [Pyridate]
pest or weed control at 27 g/ha [2]: 12.9% | pest or weed control at […] [3]: 53.2% | Control effect of (ii) alone at corresponding dose [4]: 53.2%

CCC1(CC2(c3cccc(Cl)c3)CO2)C(=O)c2ccccc2C1=O (stereo not drawn) [Indanofan]
Control effect of (ii) alone at corresponding dose (Monochoria vaginalis, (ii) 5 g a.i./mu, 20 days): 20.8% | pest or weed control at 75 g/ha [5]: 20.8% | pest or weed control at 180 g/ha (Pontederia vaginalis, 480 h, Monochoria vaginalis, (ii) 12 g a.i./mu, 20 days, read-out: Control effect of (ii) alone at corresponding dose): 63.1%

CS(=O)(=O)c1ccc(C(=O)C2=C(Sc3ccccc3)C3CCC(C3)C2=O)c(Cl)c1 (stereo not drawn) [Benzobicylon]
Control effect of (ii) alone at corresponding dose [6]: 26.8% | Control effect of (ii) alone at corresponding dose (Leptochloa chinensis, (ii) 3 g a.i./mu, stem-leaf treatment, 20 days): 26.8% | Control effect of (ii) alone at corresponding dose (Leptochloa chinensis, (ii) 15 g a.i./mu, 20 days): 68.2% | Control effect of (ii) alone at corresponding dose (Leptochloa chinensis, (ii) 15 g a.i./mu, stem-leaf treatment, 20 days): 68.2%

CCC(=O)Nc1ccc(Cl)c(Cl)c1 [Propanil]
pest or weed control at 27 g/ha [2]: 9.2% | pest or weed control at […] [3]: 46.2% | Control effect of (ii) alone at corresponding dose [4]: 46.2%

Nc1c(Cl)c(F)nc(OCC(=O)O)c1Cl [Fluroxypyr]
Control effect of (ii) alone at corresponding dose [7]: 60.3% | pest or weed control at 45 g/ha (Pontederia vaginalis, 480 h, Monochoria vaginalis, (ii) 3 g a.i./mu, stem-leaf treatment, 20 days, read-out: Control effect of (ii) alone at corresponding dose): 60.3% | pest or weed control at 60 g/ha (Pontederia vaginalis, 480 h, Monochoria vaginalis, (ii) 4 g a.i./mu, 20 days, read-out: Control effect of (ii) alone at corresponding dose): 70.4% | pest or weed control at 75 g/ha [5]: 73.4%

COP(=S)(OC)SCC(=O)N(c1ccc(Cl)cc1)C(C)(C)C [Anilofos]
pest or weed control at 45 g/ha (Dinebra chinensis, 480 h, Leptochloa chinensis, (ii) 3 g a.i./mu, stem-leaf treatment, 20 days, read-out: Control effect of (ii) alone at corresponding dose): 30.8% | pest or weed control at 450 g/ha (Dinebra chinensis, 480 h, Leptochloa chinensis, (ii) 30 g a.i./mu, 20 days, read-out: Control effect of (ii) alone at corresponding dose): 62.6% | Control effect of (ii) alone at corresponding dose [6]: 30.8%

C[C@@H](Oc1ccc(Oc2nc3ccc(Cl)cc3o2)cc1)C(=O)N(C)c1ccccc1F [Metamifop]
Control effect of (ii) alone at corresponding dose [8]: 6.8% | Control effect of (ii) alone at corresponding dose [9]: 6.8% | Control effect of (ii) alone at corresponding dose (Echinochloa phyllopogon, (ii) 8 g a.i./mu, 20 days): 60.9% | Control effect of (ii) alone at corresponding dose (Echinochloa phyllopogon, (ii) 8 g a.i./mu, stem-leaf treatment, 20 days): 60.9%

CCCOP(=S)(OCCC)SCC(=O)N1CCCCC1C (stereo not drawn) [Piperophos]
Control effect of (ii) alone at corresponding dose [7]: 9.9% | pest or weed control at 45 g/ha [10]: 9.9% | pest or weed control at 450 g/ha [10]: 41.2%

Oxadiargyl
Control effect of (ii) alone at corresponding dose [8]: 3.4% | Control effect of (ii) alone at corresponding dose [9]: 3.4% | Control effect of (ii) alone at corresponding dose [1]: 35.3% | Control effect of (ii) alone at corresponding dose (Echinochloa phyllopogon, (ii) 15 g a.i./mu, stem-leaf treatment, 20 days): 35.3%

CCC(CC)Nc1c([N+](=O)[O-])cc(C)c(C)c1[N+](=O)[O-] [Pendimethalin]
pest or weed control at 27 g/ha [2]: 6.3% | pest or weed control at 450 g/ha (480 h, Cyperus difformis, (ii) 30 g a.i./mu, stem-leaf treatment, 20 days, read-out: Control effect of (ii) alone at corresponding dose): 40.3% | Control effect of (ii) alone at corresponding dose (Cyperus difformis, (ii) 30 g a.i./mu, 20 days): 40.3%

CC(C)c1nn(C(=O)NC(C)(C)C)c(=O)n1N [Amicarbazone]
Control effect of (ii) alone at corresponding dose [7]: 23.3% | Control effect of (ii) alone at corresponding dose (Monochoria vaginalis, (ii) 3 g a.i./mu, stem-leaf treatment, 20 days): 23.3% | Control effect of (ii) alone at corresponding dose (Monochoria vaginalis, (ii) 10 g a.i./mu, 20 days): 51.6% | Control effect of (ii) alone at corresponding dose (Monochoria vaginalis, (ii) 10 g a.i./mu, stem-leaf treatment, 20 days): 51.6%
